Key:
[1] = refractive index (other wavelength) (dimensionless); conditions: 101 kPa, Liquid, Wavelength=632.8 nm, Standard Abbe refractometry
[2] = refractive index (other wavelength) (dimensionless); xn = mol fraction of the nth substance listed; conditions: 101 kPa, Liquid, Wavelength=632.8 nm, Standard Abbe refractometry, x2 = 0

CCCCCCCCC [nonane]
[1]
Conditions	refractive index
278.08 K	1.4111
279.19 K	1.4106
280.4 K	1.4101
281.48 K	1.4095
282.59 K	1.409
283.65 K	1.4085
284.91 K	1.4079

N#Cc1ccccc1 [benzonitrile]
[1]
Conditions	refractive index
278.24 K	1.5324
279.25 K	1.5319
281.33 K	1.5308
282.96 K	1.5301
284.3 K	1.5294
285.43 K	1.5288

CCCCCCCCC [nonane] + N#Cc1ccccc1
[2]
Conditions	refractive index
278.08 K	1.4111
279.19 K	1.4106
280.4 K	1.4101
281.48 K	1.4095
282.59 K	1.409
283.65 K	1.4085
284.91 K	1.4079

Reference: the NIST ThermoML archive (doi:10.1016/j.jct.2010.02.009)
